Here are results for one compound from BindingDB's records for patent US12180185 (Hk Inno.N, 2024).

The assay addresses Tyrosine-protein kinase JAK1 (Homo sapiens, UniProt P23458). Kind of assay: ADP-Glo Kinase assay. How it is done: An inhibitory effect of the inventive compound on JAK was identified as follows.A control material and a test material were prepared through dilution at each concentration by using DMSO. At the same time, ATP (250 uM) and JAK's substrate (JAK1, IRS-1tide 40 ng/mL) were prepared through dilution in kinase buffer (40 mM Tris-HCl pH 7.5, 20 mM MgCl2, 0.5 mg/mL BSA, 50 uM DTT).A test drug for each concentration, the substrate, the ATP and JAK enzymes were mixed in an eppendorf tube, and then subjected to reaction in an incubator at 30° C. for 40 minutes.ADP-GloFigure US12180185-20241231-P00001 reagent included in ADP-Glo™ Kinase Enzyme System (Promega, USA, V9571) was added to each eppendorf tube, and then subjected to reaction in the incubator at 30° C. for 40 minutes.A kinase detection reagent included in the ADP-Glo™ Kinase Enzyme System was inserted into the eppendorf tube, after which luminescence was measured by using Wallac Victor 2TM with an integration time set to 1 second, such that an inhibitory capacity of the test material on JAKs phosphorylation was analyzed. A concentration of the compound, at which JAK enzyme activity inhibition occurs 50% compared to the control group, was determined as IC50 (nM) of an inhibitor.

Tyrosine-protein kinase JAK1, sequence (P23458 whole entry): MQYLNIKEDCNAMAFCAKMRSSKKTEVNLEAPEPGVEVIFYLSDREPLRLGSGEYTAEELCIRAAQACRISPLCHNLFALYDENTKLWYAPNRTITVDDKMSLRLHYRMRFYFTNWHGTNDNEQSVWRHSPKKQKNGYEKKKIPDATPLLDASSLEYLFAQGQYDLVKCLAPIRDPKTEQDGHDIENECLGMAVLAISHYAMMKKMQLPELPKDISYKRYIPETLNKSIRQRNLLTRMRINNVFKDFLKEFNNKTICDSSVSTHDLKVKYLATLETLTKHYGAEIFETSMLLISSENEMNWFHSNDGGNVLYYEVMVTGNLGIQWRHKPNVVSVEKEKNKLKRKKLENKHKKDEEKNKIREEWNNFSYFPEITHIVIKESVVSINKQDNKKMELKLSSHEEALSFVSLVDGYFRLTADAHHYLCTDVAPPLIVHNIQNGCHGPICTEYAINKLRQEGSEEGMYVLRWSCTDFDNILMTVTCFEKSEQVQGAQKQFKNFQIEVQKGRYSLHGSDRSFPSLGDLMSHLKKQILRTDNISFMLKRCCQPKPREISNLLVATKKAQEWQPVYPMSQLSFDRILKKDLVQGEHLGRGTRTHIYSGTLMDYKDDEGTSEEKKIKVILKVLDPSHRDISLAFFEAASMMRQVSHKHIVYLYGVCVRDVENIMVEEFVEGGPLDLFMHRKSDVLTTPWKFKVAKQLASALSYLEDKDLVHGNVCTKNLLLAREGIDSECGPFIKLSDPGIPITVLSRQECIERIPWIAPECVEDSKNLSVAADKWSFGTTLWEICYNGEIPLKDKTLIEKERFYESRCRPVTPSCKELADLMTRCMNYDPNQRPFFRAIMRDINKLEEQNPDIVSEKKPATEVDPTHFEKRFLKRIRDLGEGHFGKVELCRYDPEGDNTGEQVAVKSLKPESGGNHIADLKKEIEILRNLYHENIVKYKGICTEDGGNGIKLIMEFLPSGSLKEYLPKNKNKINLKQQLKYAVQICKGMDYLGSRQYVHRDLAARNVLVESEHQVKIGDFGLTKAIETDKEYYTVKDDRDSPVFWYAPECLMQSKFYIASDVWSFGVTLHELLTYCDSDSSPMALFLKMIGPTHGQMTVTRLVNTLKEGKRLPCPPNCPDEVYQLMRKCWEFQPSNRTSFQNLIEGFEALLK

As a reminder, the IC50 is the midpoint of a concentration-inhibition curve. A low value points to greater potency. Regarding `CC(C)=C(C#N)C(=O)Nc1cccc2c(-c3ccnc(NC(=O)C4CC4)c3)n[nH]c12` [US12180185, Example 63], the concentration for half-maximal inhibition (IC50) was above 1000 nM.
